SMILES strings stand for the structures.

Here are results for 23 compounds from patent US11000511B2, “Chemical compounds as antibiotics” (priority 2017, dated 2021).

Experiment [1] has as its target T1, purified LasB protein from P. aeruginosa (Pseudomonas aeruginosa, UniProt P14756).
T1 construct: purchased Merck or Charles River Laboratories
The experiment in a line: Fluorometric assay to determine Ki (Assay 1). The format is biochemical. The conditions noted are these: Ki (μM) Assay 1, purified LasB, substrate Abz-Ala-Gly-Leu-Ala-p-Nitro-Benzyl-Amide 250 μM, Ki calculated from IC50; inhibitor 0.006 to 200 μM. How it is done: (§1) Experiments were therefore conducted (1) to measure the potency of inhibition of compounds of the invention against purified Pseudomonas aeruginosa LasB enzyme and also experiments were conducted (2) to measure the ability of compounds of the invention to inhibit LasB-catalysed elastin degradation. The first assay uses a commercial fluorescent synthetic peptide and purified LasB enzyme. The LasB hydrolysis kinetics are measured allowing the determination of the IC50 and Ki of the inhibitors; the second is a more physiological assay using dialysed Pseudomonas aeruginosa supernatant as source of enzyme, plus its natural substrate Elastin. It is an “end point assay” that determines the percentage of LasB inhibition by each compound for one particular time point and inhibitor concentration. Technical details are described below:
This assay uses commercially available substrate (Abz-Ala-Gly-Leu-Ala-p-Nitro-Benzyl-Amide (Ex: 340 nm, Em: 415 nm) from Peptide International) and purified LasB protein from P. aeruginosa (provided by Merck or Charles River Laboratories). It is performed to determine LasB elastase activity and assess compound inhibition in 96-well plate format. Some compounds of Formula (I) were assessed using the method of Assay 1 (described below). Other compounds of Formula (I) were assessed using the alternative but equivalent method of Assay 2 (described below).
Method: 10 to 140 ng/ml purified LasB is incubated with 250 μM Abz-Ala-Gly-Leu-Ala-p-Nitro-Benzyl-Amide in 50 mM Tris-HCl pH 7.4, 2.5 mM CaCl2), 0.01% of Triton X100 at 37° C. LasB activity (corresponding to fluorescence emission induced by substrate hydrolysis) is measured over 30 min at 37° C. with a fluorescence plate reader such as the Perkin Elmer Envision or similar. Different range of inhibitor concentrations are routinely assessed depending of inhibitor potency from 0.006 to 200 μM (Assay 1; 2-fold dilutions series) or from 0.0016 to 200 μM (Assay 2; 2-fold dilutions series) in order to determine IC50.
The equation used to calculate the Ki from IC50 is: Ki=IC50/(1+([S]/Km)) where [S]=250 μM and Km=214 μM.

The target of experiment [2] is T2, LasB elastase activity in dialysed supernatant from P. aeruginosa strain PA01 (Pseudomonas aeruginosa, UniProt P14756).
T2 construct: uses as source of enzyme dialysed supernatant from P. aeruginosa; endogenous in cells; host or cells: P. aeruginosa strain PA01 culture supernatant, filtered and dialysed
The experiment in a line: Elastin Congo Red assay to determine % inhibition (Assay 1). Type of experiment: biochemical. The conditions noted are these: read-out: Elastin hydrolysis % inhibition @ 50/25 μM inhibitor concentration Assay 1. How it is done: as §1
The Elastin assay uses as source of enzyme dialysed supernatant from P. aeruginosa and the elastin congo red as substrate. The natural LasB substrate, elastin, is complexed with the congo red dye (Elastin Congo Red, ECR). The elastolysis activity from the culture supernatant will degrade elastin and release the congo red dye into the supernatant. This red dye release can be measured with a spectrophotometer. Some compounds of Formula (I) were assessed using the method of Assay 1 (described below). Other compounds of Formula (I) were assessed using the alternative but equivalent method of Assay 2 (described below).
Method (Assay 1): To determine LasB elastase activity and assess compound inhibition, an overnight culture of P. aeruginosa strain PA01 is diluted thousand-fold in LB medium. This diluted solution is incubated during 19 hours in a shaking incubator. Culture supernatants are recovered by centrifugation and filtrated through a […] filter. These supernatants are dialysed (filtration molecules <20 kDa) into a 50 mM Tris pH 7.4, 2.5 mM CaCl2 solution at 4° C. under agitation for 24 hours. Supernatant dialysed is then mixed volume/volume with the ECR suspension (20 mg/mL of ECR in 100 mM Tris buffer supplemented with 1 mM CaCl2) supplemented with TritonX 100 (final concentration of 0.01%) in presence of different concentrations of compound (routinely 50 and 25 μM). The mixed reaction is then incubated for 24 hours in a 37° shaking incubator. As a negative control, the mixed supernatant is replaced by Tris solution (50 mM Tris pH 7.4, 2.5 mM CaCl2). The reaction supernatant is recovered by centrifugation and the release of congo red is measured by its absorbance at OD520. Percentage inhibition is determined using the following equation: (OD520 value of DMSO SN−OD520 value of LB)−(OD520 value of Compound SN−OD520 value of LB)/(OD520 value of DMSO SN−OD520 value of LB)×100.

T1 sequence (P14756 198-498): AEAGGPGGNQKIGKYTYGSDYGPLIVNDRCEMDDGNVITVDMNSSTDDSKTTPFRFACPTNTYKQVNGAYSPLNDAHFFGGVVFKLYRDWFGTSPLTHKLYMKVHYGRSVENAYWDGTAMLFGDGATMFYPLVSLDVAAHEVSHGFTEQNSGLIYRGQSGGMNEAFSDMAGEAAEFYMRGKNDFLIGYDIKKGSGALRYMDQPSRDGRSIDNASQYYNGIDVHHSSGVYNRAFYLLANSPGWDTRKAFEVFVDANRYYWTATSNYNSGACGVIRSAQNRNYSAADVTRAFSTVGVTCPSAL
T2 sequence (P14756 198-498): as above

Broadly, the Ki is a dissociation constant, usually derived from enzyme kinetics or from competition with a known ligand. `CN(C)CCOc1ccc2nc(CNC(=O)C3(CC(=O)O)Cc4ccccc4C3)sc2c1` [Example 110, 2-[2-[[6-[2-(dimethylamino)ethoxy]-1,3-benzothiazol-2-yl]methylcarbamoyl]indan-2-yl]acetic acid]: the Ki in experiment [1] is 0.3 to 2 µM. Further, the inhibition at 50 µM in experiment [2] lay in the range of 30 to 60%.

`C[N+](C)(C)CCc1ccc2sc(CNC(=O)C3(CC(=O)[O-])Cc4ccccc4C3)nc2c1` [Example 98, 2-[2-[[5-[2-(trimethylammonio)ethyl]-1,3-benzothiazol-2-yl]methylcarbamoyl]indan-2-yl]acetate]: in experiment [1], the Ki is 0.3 to 2 µM.

For the compound `NCc1nnc([C@H](Cc2c[nH]c3ccccc23)NC(=O)C2(CC(=O)O)Cc3ccccc3C2)o1` [Example 118, (S)-2-(2-((1-(5-(aminomethyl)-1,3,4-oxadiazol-2-yl)-2-(1H-indol-3-yl)ethyl)carbamoyl)-2,3-dihydro-1H-inden-2-yl)acetic acid], the Ki in experiment [1] is under 0.3 µM. For the same compound, the inhibition at 50 µM in experiment [2] is over 60%.

Take `O=C(O)CC1(C(=O)NCc2nc3ccccc3s2)Cc2ccccc2C1` [Example 10, 2-(2-{[(1,3-Benzothiazol-2-yl)methyl]carbamoyl}-2,3-dihydro-1H-inden-2-yl)acetic acid]: the Ki in experiment [1] was under 0.3 µM. The inhibition at 50 µM in experiment [2] was over 60%.

Consider `NCCC1CN(c2ccc3nc(CNC(=O)C4(CC(=O)O)Cc5ccccc5C4)sc3c2)C1` [Example 70, 2-[2-[[6-[3-(2-aminoethyl)azetidin-1-yl]-1,3-benzothiazol-2-yl]methylcarbamoyl]indan-2-yl]acetic acid], for which the Ki in experiment [1] is under 0.3 µM. For the same compound, the inhibition at 50 µM in experiment [2] is over 60%.

Turning to `COc1cccc2sc(CNC(=O)C3(CC(=O)O)Cc4ccccc4C3)nc12` [Example 62, 2-(2-(((4-methoxybenzo[d]thiazol-2-yl)methyl)carbamoyl)-2,3-dihydro-1H-inden-2-yl)acetic acid], the Ki in experiment [1] was under 0.3 µM. In addition, the inhibition at 50 µM in experiment [2] is over 60%.

Take `CN(C)C1CC(Oc2ccc3nc(CNC(=O)C4(CC(=O)O)Cc5ccccc5C4)sc3c2)C1` (stereo not drawn) [Example 79, 2-[2-[[6-[3-(dimethylamino)cyclobutoxy]-1,3-benzothiazol-2-yl]methylcarbamoyl]indan-2-yl]acetic acid]: the Ki in experiment [1] is 0.3 to 2 µM.

Consider `C[N+](C)(C)CCc1ccc2nc(CNC(=O)C3(CC(=O)[O-])Cc4ccccc4C3)sc2c1` [Example 96, 2-[2-[[6-[2-(trimethylammonio)ethyl]-1,3-benzothiazol-2-yl]methylcarbamoyl]indan-2-yl]acetate], for which the Ki in experiment [1] was 0.3 to 2 µM. For the same compound, the inhibition at 50 µM in experiment [2] was in the range of 30 to 60%.

For the compound `CN(C)CCc1ccc2sc(CNC(=O)C3(CC(=O)O)Cc4ccccc4C3)nc2c1` [Example 97, 2-[2-[[5-[2-(dimethylamino)ethyl]-1,3-benzothiazol-2-yl]methylcarbamoyl]indan-2-yl]acetic acid], the Ki in experiment [1] is 0.3 to 2 µM.

Take `CN(C)Cc1ccc2sc(CNC(=O)C3(CC(=O)O)Cc4ccccc4C3)nc2c1` [Example 84, 2-[2-[[5-[(dimethylamino)methyl]-1,3-benzothiazol-2-yl]methylcarbamoyl]indan-2-yl]acetic acid]: the Ki in experiment [1] was 0.3 to 2 µM.

On to `CN(C)CC#Cc1ccc2sc(CNC(=O)C3(CC(=O)O)Cc4ccccc4C3)nc2c1` [Example 88, 2-[2-[[5-[3-(dimethylamino)prop-1-ynyl]-1,3-benzothiazol-2-yl]methylcarbamoyl]indan-2-yl]acetic acid], for which the Ki in experiment [1] was under 0.3 µM. The inhibition at 50 µM in experiment [2] was over 60%.

As for `C[N+](C)(C)CCOc1ccc2sc(CNC(=O)C3(CC(=O)[O-])Cc4ccccc4C3)nc2c1` [Example 113, 2-[2-[[5-[2-(trimethylammonio)ethoxy]-1,3-benzothiazol-2-yl]methylcarbamoyl]indan-2-yl]acetate], the Ki in experiment [1] is 0.3 to 2 µM. In experiment [2], the inhibition at 50 µM is over 60%.

`Cc1ccc2c(c1)CC(CNC(=O)C1(CC(=O)O)Cc3ccccc3C1)O2` (stereo not drawn) [Example 7, 2-[2-[(5-methyl-2,3-dihydrobenzofuran-2-yl)methylcarbamoyl]indan-2-yl]acetic acid]: the Ki in experiment [1] is under 0.3 µM. Moreover, the inhibition at 50 µM in experiment [2] is over 60%.

`O=C(O)CC1(C(=O)NCCc2nc3ccccc3s2)Cc2ccccc2C1` [Example 22, 2-[2-[2-(1,3-benzothiazol-2-yl)ethylcarbamoyl]indan-2-yl]acetic acid]: the Ki in experiment [1] was 2 to 10 µM. Besides, the inhibition at 50 µM in experiment [2] lay within 15 to 30%.

On to `CN(C)Cc1ccc2nc(CNC(=O)C3(CC(=O)O)Cc4ccccc4C3)sc2c1` [Example 81, 2-[2-[[6-[(dimethylamino)methyl]-1,3-benzothiazol-2-yl]methylcarbamoyl]indan-2-yl]acetic acid], for which the Ki in experiment [1] is 2 to 10 µM.

`C[N+](C)(C)Cc1ccc2nc(CNC(=O)C3(CC(=O)[O-])Cc4ccccc4C3)sc2c1` [Example 82, 2-[2-[[6-[(trimethylammonio)methyl]-1,3-benzothiazol-2-yl]methylcarbamoyl]indan-2-yl]acetate]: the Ki in experiment [1] was 2 to 10 µM.

In the case of `C[N+](C)(C)CCNc1ccc2sc(CNC(=O)C3(CC(=O)[O-])Cc4ccccc4C3)nc2c1` [Example 77, 2-[2-[[5-[2-(trimethylammonio)ethylamino]-1,3-benzothiazol-2-yl]methylcarbamoyl]indan-2-yl]acetate], the Ki in experiment [1] is 0.3 to 2 µM.

For `NC1CC(Oc2ccc3nc(CNC(=O)C4(CC(=O)O)Cc5ccccc5C4)sc3c2)C1` (mixture of isomers) [Example 78, 2-[2-[[6-(3-aminocyclobutoxy)-1,3-benzothiazol-2-yl]methylcarbamoyl]indan-2-yl]acetic acid], the Ki in experiment [1] was 0.3 to 2 µM.

For `NCCc1ccc2sc(CNC(=O)C3(CC(=O)O)Cc4ccccc4C3)nc2c1` [Example 83, 2-[2-[[5-(2-aminoethyl)-1,3-benzothiazol-2-yl]methylcarbamoyl]indan-2-yl]acetic acid], the Ki in experiment [1] was 0.3 to 2 µM.

As to `O=C(O)CC1(C(=O)NCc2nc3ccccc3s2)Cc2cc(Cl)c(Cl)cc2C1` [Example 121, 2-(2-((benzo[d]thiazol-2-ylmethyl)carbamoyl)-5,6-dichloro-2,3-dihydro-1H-inden-2-yl)acetic acid], the Ki in experiment [1] was 0.3 to 2 µM.

On to `O=C(O)CC1(C(=O)NCCc2nc3ccccc3o2)Cc2ccccc2C1` [Example 31, 2-[2-[2-(1,3-benzoxazol-2-yl)ethylcarbamoyl]indan-2-yl]acetic acid], for which the Ki in experiment [1] was 2 to 10 µM.

For `CC(C)(N)c1nnc([C@H](Cc2c[nH]c3ccccc23)NC(=O)C2(CC(=O)O)Cc3ccccc3C2)o1` [Example 119, (S)-2-(2-((1-(5-(2-aminopropan-2-yl)-1,3,4-oxadiazol-2-yl)-2-(1H-indol-3-yl)ethyl)carbamoyl)-2,3-dihydro-1H-inden-2-yl)acetic acid], the Ki in experiment [1] is 0.3 to 2 µM.

For the compound `C[N+](C)(C)Cc1ccc2sc(CNC(=O)C3(CC(=O)[O-])Cc4ccccc4C3)nc2c1` [Example 85, 2-[2-[[5-[(trimethylammonio)methyl]-1,3-benzothiazol-2-yl]methylcarbamoyl]indan-2-yl]acetate], the Ki in experiment [1] is 0.3 to 2 µM.
